Measurements taken from ChEMBL document CHEMBL5634124, “Discovery and optimization of indirubin derivatives as novel ferroptosis inducers for the treatment of colon cancer” (Eur J Med Chem, 2023).
≈ marks a conversion by molar mass, not a printed value. Calls of active or inactive are those of the source. No cut-off for these calls is given here.

Assays:
HCT-116 [1] = experiment: Cytotoxicity against human HCT-116 cells assessed as inhibition of cell viability incubated for 48 hrs by CCK8 assay; type: functional, cell-based; settings: HCT-116, 48 h
[2] = Kinetic solubility of compound at pH 7.4; type: physicochemical; settings: buffer, read-out: Kinetic_solubility
HCT-116 [3] = experiment: Inhibition of colony formation in human HCT-116 cells treated for 48 hrs followed by replacement of growth medium without compound every other day measured after 2 weeks by crystal violet staining based assay; type: functional, cell-based; settings: dose <= 1.0 µM
HCT-116 [4] = experiment: Cytotoxicity against human HCT-116 cells assessed as inhibition of cell viability incubated for 48 hrs in presence of Nec by CCK8 assay; type: functional, cell-based
HCT-116 [5] = experiment: Cytotoxicity against human HCT-116 cells assessed as inhibition of cell viability incubated for 48 hrs in presence of 3-MA by CCK8 assay; type: functional, cell-based
HCT-116 [6] = experiment: Cytotoxicity against human HCT-116 cells assessed as inhibition of cell viability incubated for 48 hrs in presence of Z-VAD by CCK8 assay; type: functional, cell-based
HCT-116 [7] = experiment: Cytotoxicity against human HCT-116 cells assessed as inhibition of cell viability incubated for 48 hrs in presence of NAC by CCK8 assay; type: functional, cell-based
HCT-116 [8] = experiment: Cytotoxicity against human HCT-116 cells assessed as inhibition of cell viability incubated for 48 hrs in presence of DFO by CCK8 assay; type: functional, cell-based
HCT-116 [9] = experiment: Cytotoxicity against human HCT-116 cells assessed as inhibition of cell viability incubated for 48 hrs in presence of Fer-1 by CCK8 assay; type: functional, cell-based
HCT-116 [10] = experiment: Induction of ferroptosis in human HCT-116 cells assessed as increase in intracellular lipid ROS level incubated for 24 hrs by CLSM analysis; type: functional, cell-based; settings: dose <= 1.0 µM
HCT-116 [11] = experiment: Induction of ferroptosis in human HCT-116 cells assessed as increase in intracellular lipid ROS level incubated for 24 hrs by flow cytometry; type: functional, cell-based; settings: dose <= 1.0 µM
HCT-116 [12] = experiment: Induction of ferroptosis in human HCT-116 cells assessed as increase in intracellular MDA level incubated for 24 hrs; type: functional, cell-based; settings: dose <= 1.0 µM
HCT-116 [13] = experiment: Induction of ferroptosis in human HCT-116 cells assessed as decrease in GSH level upto 1 uM incubated for 24 hrs; type: functional, cell-based
HCT-116 [14] = experiment: Induction of ferroptosis in human HCT-116 cells assessed as increase in Fe2+ level upto 1 uM incubated for 24 hrs by flow cytometry; type: functional, cell-based
[15] = molecular target: T1, Phospholipid hydroperoxide glutathione peroxidase GPX4 (Homo sapiens) (UniProt P36969); experiment: Inhibition of GPX4 in human HCT-116 cells at 0.5 uM by Western blot analysis; type: cell-based; settings: time <= 48.0 hrs, TDE = time-dependent effect
T1 sequence (whole entry): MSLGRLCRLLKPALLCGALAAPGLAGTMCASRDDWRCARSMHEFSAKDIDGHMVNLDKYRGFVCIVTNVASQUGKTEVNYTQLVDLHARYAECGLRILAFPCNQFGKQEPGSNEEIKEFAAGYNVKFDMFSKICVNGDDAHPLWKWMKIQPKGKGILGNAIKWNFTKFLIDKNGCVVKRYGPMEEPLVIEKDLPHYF

[16] = molecular target: T1, Phospholipid hydroperoxide glutathione peroxidase GPX4 (Homo sapiens); experiment: Inhibition of GPX4 in human HCT-116 cells incubated for 24 hrs by Western blot analysis; type: cell-based; settings: dose <= 1.0 µM
[17] = molecular target: T2, Phospholipid hydroperoxide glutathione peroxidase GPX4 (Homo sapiens, UniProt P36969); experiment: Inhibition of GPX4 (unknown origin) incubated for 1 hr by absorbance based assay
T2 sequence (P36969 whole entry): T1 sequence (whole entry)

HCT-116 [18] = experiment: Effect on FSP1 expression in human HCT-116 cells; type: functional, cell-based
HCT-116 [19] = experiment: Effect on ACSL4 expression in human HCT-116 cells; type: functional, cell-based
HCT-116 [20] = experiment: Effect on SLC7A11 expression in human HCT-116 cells; type: functional, cell-based
HCT-116 [21] = experiment: Effect on NCOA4 expression in human HCT-116 cells; type: functional, cell-based
[22] = molecular target: T1, Phospholipid hydroperoxide glutathione peroxidase GPX4 (Homo sapiens); experiment: Inhibition of GPX4 in human HCT-116 cells assessed as increase in protein ubiquitination upto 1 uM incubated for 24 hrs by co-immunoprecipitation method; type: cell-based
[23] = Toxicity in BALB/c nude mouse model xenografted with human HCT-116 cells assessed as body weight loss at 25 to 50 mg/kg, ip administered 4 times a week for 3 weeks; type: organism-based; settings: in vivo, 504 h, dose 25-50 mg/kg
HCT-116 [24] = experiment: Antitumor activity against human HCT-116 cells xenografted in BALB/c nude mouse model assessed as tumor growth inhibition at 25 mg/kg, ip administered 4 times a week for 3 weeks relative to control; type: functional; settings: HCT-116, 504 h, read-out: TGI
HCT-116 [25] = experiment: Antitumor activity against human HCT-116 cells xenografted in BALB/c nude mouse model assessed as tumor growth inhibition at 50 mg/kg, ip administered 4 times a week for 3 weeks relative to control; type: functional; settings: HCT-116, 504 h, read-out: TGI
[26] = Toxicity in BALB/c nude mouse model xenografted with human HCT-116 cells assessed as morphological change in heart at 25 to 50 mg/kg, ip administered 4 times a week for 3 weeks by H and E staining based analysis; type: organism-based; settings: in vivo, 504 h, dose 25-50 mg/kg
[27] = Toxicity in BALB/c nude mouse model xenografted with human HCT-116 cells assessed as morphological change in liver at 25 to 50 mg/kg, ip administered 4 times a week for 3 weeks by H and E staining based analysis; type: organism-based; settings: in vivo, 504 h, dose 25-50 mg/kg
[28] = Toxicity in BALB/c nude mouse model xenografted with human HCT-116 cells assessed as morphological change in spleen at 25 to 50 mg/kg, ip administered 4 times a week for 3 weeks by H and E staining based analysis; type: organism-based; settings: in vivo, 504 h, dose 25-50 mg/kg
[29] = Toxicity in BALB/c nude mouse model xenografted with human HCT-116 cells assessed as morphological change in kidney at 25 to 50 mg/kg, ip administered 4 times a week for 3 weeks by H and E staining based analysis; type: organism-based; settings: in vivo, 504 h, dose 25-50 mg/kg
[30] = Toxicity in BALB/c nude mouse model xenografted with human HCT-116 cells assessed as morphological change in lungs at 25 to 50 mg/kg, ip administered 4 times a week for 3 weeks by H and E staining based analysis; type: organism-based; settings: in vivo, 504 h, dose 25-50 mg/kg
HCT-116 [31] = experiment: Antitumor activity against human HCT-116 cells xenografted in BALB/c nude mouse model assessed as morphological change in tumor at 25 to 50 mg/kg, ip administered 4 times a week for 3 weeks by H and E staining based analysis; type: functional, organism-based; settings: dose 25-50 mg/kg
HCT-116 [32] = experiment: In vivo inhibition of GPX4 in human HCT-116 cells xenografted in BALB/c nude mouse model at 25 to 50 mg/kg, ip administered 4 times a week for 3 weeks by IHC analysis; type: functional, organism-based; settings: dose 25-50 mg/kg
[33] = Metabolic stability in human liver microsomes assessed as half life at 0.5 uM incubated for 45 mins by LC/MS analysis; type: ADME, Microsome
[34] = Metabolic stability in human liver microsomes assessed as intrinsic clearance at 0.5 uM incubated for 45 mins by LC/MS analysis; type: ADME, Microsome; settings: read-out: CLH
[35] = Metabolic stability in human liver microsomes assessed as hepatic clearance rate at 0.5 uM incubated for 45 mins by LC/MS analysis; type: ADME, Microsome

## C#CC(=O)N1CCN(NC(=O)c2ccc3c(c2)C(=O)/C(=C2/C(=O)Nc4ccccc42)N3)CC1
HCT-116 [1]
  IC50: 3.47 µM

## C#CC(=O)N1CCN(c2ccc(NC(=O)c3ccc4c(c3)C(=O)/C(=C3/C(=O)Nc5ccccc53)N4)cc2)CC1
HCT-116 [1]
  IC50: > 20 µM

## O=C(CCl)CCCC(=O)c1ccc2c(c1)C(=O)/C(=C1/C(=O)Nc3ccccc31)N2
HCT-116 [1]
  IC50: 3.96 µM

## O=C1Nc2ccccc2/C1=C1/Nc2ccc(C(=O)NC3CCN(C(=O)CCl)CC3)cc2C1=O
HCT-116 [1]
  IC50: 1.81 µM

## O=C1Nc2ccccc2/C1=C1/Nc2ccc(C(=O)NCC3CCN(C(=O)CCl)CC3)cc2C1=O
HCT-116 [1]
  IC50: 0.49 µM
[2]
  solubility kinetic: < 0.5 µg/mL
HCT-116 [3]
  inhibition: Dose-Dependent Effect
HCT-116 [4]
  inhibition: Active
HCT-116 [5]
  inhibition: Active
HCT-116 [6]
  inhibition: Active
HCT-116 [7]
  inhibition: inactive
HCT-116 [8]
  inhibition: inactive
HCT-116 [9]
  inhibition: inactive
HCT-116 [10]
  Activity: Dose-Dependent Effect
HCT-116 [11]
  Activity: Dose-Dependent Effect
HCT-116 [12]
  Activity: Dose-Dependent Effect
HCT-116 [13]
  Activity: Active
HCT-116 [14]
  Activity: Active
[15]
  inhibition: Tde
[16]
  inhibition: Dose-Dependent Effect
[17]
  IC50: 6.48 µM
HCT-116 [18]
  Activity: inactive
HCT-116 [19]
  Activity: inactive
HCT-116 [20]
  Activity: inactive
HCT-116 [21]
  Activity: inactive
[22]
  inhibition: Active
[23]
  Activity: Non-Toxic
HCT-116 [24]
  inhibition in vivo at 25 mg/kg: 63.4%
HCT-116 [25]
  inhibition in vivo at 50 mg/kg: 71.5%
[26]
  Activity: Non-Toxic
[27]
  Activity: Non-Toxic
[28]
  Activity: Non-Toxic
[29]
  Activity: Non-Toxic
[30]
  Activity: Non-Toxic
HCT-116 [31]
  Activity: Active
HCT-116 [32]
  inhibition: Active
[33]
  half-life at 0.5 µM: 17.1 min
[34]
  CLint scaled at 0.5 µM: 95.5 mL/min/kg
[35]
  CLhep predicted at 0.5 µM: 16.9 mL/min/kg

## C=CC(=O)N1CCN(c2ccc(NC(=O)c3ccc4c(c3)C(=O)/C(=C3/C(=O)Nc5ccccc53)N4)cc2)CC1
HCT-116 [1]
  IC50: > 20 µM

## O=C1Nc2ccccc2/C1=C1/Nc2ccc(C(=O)N3CCN(C(=O)CCl)CC3)cc2C1=O
HCT-116 [1]
  IC50: 2.31 µM

## O=C1Nc2ccccc2/C1=C1/Nc2ccc(C(=O)NN3CCN(C(=O)CCl)CC3)cc2C1=O
HCT-116 [1]
  IC50: 1.44 µM

## O=C1Nc2ccccc2/C1=C1/Nc2ccc(C(=O)Nc3ccc(N4CCN(C(=O)CCl)CC4)cc3)cc2C1=O
HCT-116 [1]
  IC50: 7.54 µM

## C=CC(=O)N1CCN(NC(=O)c2ccc3c(c2)C(=O)/C(=C2/C(=O)Nc4ccccc42)N3)CC1
HCT-116 [1]
  IC50: 12.4 µM

## C#CC(=O)CCCCCC(=O)c1ccc2c(c1)C(=O)/C(=C1/C(=O)Nc3ccccc31)N2
HCT-116 [1]
  IC50: 3.53 µM

## C#CC(=O)CCCC(=O)c1ccc2c(c1)C(=O)/C(=C1/C(=O)Nc3ccccc31)N2
HCT-116 [1]
  IC50: 7.4 µM

## O=C(CCl)CCCCC(=O)c1ccc2c(c1)C(=O)/C(=C1/C(=O)Nc3ccccc31)N2
HCT-116 [1]
  IC50: 1.72 µM

## CC(=O)N1CCC(NC(=O)c2ccc3c(c2)C(=O)/C(=C2/C(=O)Nc4ccccc42)N3)CC1
HCT-116 [1]
  IC50: 4.05 µM

## O=C1Nc2ccccc2/C1=C1/Nc2ccccc2C1=O [INDIRUBIN]
HCT-116 [1]
  IC50: 19.5 µM
[2]
  solubility kinetic: 4.01 µg/mL (≈ 15.3 µM)
[33]
  half-life at 0.5 µM: 22.8 min
[34]
  CLint scaled at 0.5 µM: 70.2 mL/min/kg
[35]
  CLhep predicted at 0.5 µM: 16 mL/min/kg

## C#CC(=O)N1CCC(CNC(=O)c2ccc3c(c2)C(=O)/C(=C2/C(=O)Nc4ccccc42)N3)CC1
HCT-116 [1]
  IC50: 1 µM

## C#CC(=O)N1CCN(CCNC(=O)c2ccc3c(c2)C(=O)/C(=C2/C(=O)Nc4ccccc42)N3)CC1
HCT-116 [1]
  IC50: 6.31 µM
